# What was measured:
# Format in all cases: in vivo, male Wistar rats
# [1] = test system: Alanine aminotransferase (ALT); assay: Water-immersion stress model: alanine aminotransferase activity in blood serum
# Experimental: (§1) Alanine aminotransferase (ALT) and alkaline phosphatase (AP) activity in blood serum was determined with "Vital Development Corporation" kits.
# [2] = Indomethacin intoxication, therapeutic: changes in body weight; details: Indomethacin 30 mg/kg, Before Indomethacin = 100
# Experimental: (§2) 2 ml/kg of the ulcerogenic dose of indomethacin equal to 30 mg/kg was administered intraperitoneally. The treatment started 24 hrs. post indomethacin administration and continued for 5 days. The animals in the experimental groups received N-isovaleroyl-L-glutamyl-L-tryptophan or the comparator drug Sucralfate, and the control group received distilled water.
# Some loss of weight of the intact animals could be contributed to the 18-hr fasting. […]
# [3] = Indomethacin-induced ulcer model, preventive: weight of organs
# Experimental: (§3) Intensity of changes caused by stressors in the internal organs of the animals was evaluated by the relative weight changes of the adrenal glands, thymus, and spleen calculated as a ratio of the organ's weight to the body weight of the animal multiplied by 100.
# (§4) The efficacy of the course of preventive treatment with the claimed composition was evaluated 24 hrs. post indomethacin administration. The study was conducted as in Example 1.
# [4] = test system: Alanine aminotransferase (ALT); assay: Indomethacin-induced ulcer model, preventive: alanine aminotransferase activity in blood serum
# Experimental: as §1, §4
# [5] = Indomethacin-induced ulcer model, therapeutic: weight of organs; details: treatment 5 days after Indomethacin
# Experimental: as §3, §2
# [6] = test system: alkaline phosphatase (AP); assay: Water-immersion stress model: alkaline phosphatase activity in blood serum
# Experimental: as §1
# [7] = test system: alkaline phosphatase (AP); assay: Indomethacin-induced ulcer model, therapeutic: alkaline phosphatase activity in blood serum; details: treatment 5 days after Indomethacin
# Experimental: as §1, §2
# [8] = test system: superoxide dismutase (SODM); assay: Indomethacin-induced ulcer model, therapeutic: superoxide dismutase activity in blood serum; details: treatment 5 days after Indomethacin
# Experimental: (§5) Intensity of the free radical oxidation was evaluated by the malondialdehyde (MDA) accumulation in blood serum [R.A. Temirbulatov, Ye.I. Seleznev Method for Increasing the Intensity of Free Radical Oxidation in Lipid-Containing Blood Components and its Diagnostic Significance // Labor. Delo, 1981, # 4, p.p. 209 - 211]. The state of the antioxidant systems was evaluated by the superoxide dismutase (SODM) activity [S. Chevari , I. Chaba, Y. Sekei. The Role of Superoxide Dismutase in Cellular Oxidative Processes and Method of its Determination in Biological Materials // Labor. Delo, 1985, # 11, p.p. 678 - 681].
# as §2
# [9] = test system: superoxide dismutase (SODM); assay: Indomethacin-induced ulcer model, preventive: superoxide dismutase activity in blood serum
# Experimental: as §5, §4
# [10] = Water-immersion stress model: weight of organs
# Experimental: as §3
# malondialdehyde (MDA) [11] = assay: Indomethacin-induced ulcer model, therapeutic: malondialdehyde in blood serum; details: for MDA: treatment 5 days after Indomethacin
# Experimental: as §5, §2
# malondialdehyde (MDA) [12] = assay: Water-immersion stress model: malondialdehyde in blood serum
# Experimental: as §5
# [13] = test system: Alanine aminotransferase (ALT); assay: Indomethacin-induced ulcer model, therapeutic: alanine aminotransferase activity in blood serum; details: treatment 5 days after Indomethacin
# Experimental: as §1, §2
# [14] = test system: alkaline phosphatase (AP); assay: Indomethacin-induced ulcer model, preventive: alkaline phosphatase activity in blood serum
# Experimental: as §1, §4
# [15] = test system: superoxide dismutase (SODM); assay: Water-immersion stress model: superoxide dismutase activity in blood serum
# Experimental: as §5
# malondialdehyde (MDA) [16] = assay: Indomethacin-induced ulcer model, preventive: malondialdehyde in blood serum
# Experimental: as §5, §4
# [17] = 0.1 mkg/kg + Indomethacin 20 mg/kg
# [18] = 10 mkg/kg + Indomethacin 20 mg/kg
# [19] = blood serum, 0.1 mkg/kg + Indomethacin 20 mg/kg, preventive
# [20] = blood serum, 10 mkg/kg + Indomethacin 20 mg/kg, preventive
# [21] = preventive administration, indomethacin 20 mg/kg
# [22] = 200 mg/kg + Indomethacin 20 mg/kg
substance,measurement,setting,value
N-isovaleroyl-L-glutamyl-L-tryptophan [VGT preparation],ALT,[1]; 0.1 mkg/kg + stress,1.55 ± 0.15 mM/hr-L
same,ALT,[1]; 10.0 mkg/kg + stress,1.78 ± 0.08 mM/hr-L
same,Body weight In 5 days,[2]; 0.1 mkg/kg,84.4 ± 2.3
same,Body weight In 5 days,[2]; 10.0 mkg/kg,84.1 ± 3.0
same,Adrenal Glands Rel. wt.,[3]; [17],0.017 ± 0.001%
same,Adrenal Glands Wt.,[3]; [17],37.1 ± 1.3 mg
same,Liver Rel. wt.,[3]; [17],2.99 ± 0.060%
same,Liver Wt.,[3]; [17],6.549 ± 0.282 g
same,Spleen Rel. wt.,[3]; [17],0.433 ± 0.041%
same,Spleen Wt.,[3]; [17],0.912 ± 0.044 g
same,Thymus Rel. wt.,[3]; [17],0.124 ± 0.007 %
same,Thymus Wt.,[3]; [17],0.277 ± 0.018 g
same,Adrenal Glands Rel. wt.,[3]; [18],0.018 ± 0.001%
same,Adrenal Glands Wt.,[3]; [18],38.5 ± 1.4 mg
same,Liver Rel. wt.,[3]; [18],3.053 ± 0.065%
same,Liver Wt.,[3]; [18],6.770 ± 0.335 g
same,Spleen Rel. wt.,[3]; [18],0.434 ± 0.018%
same,Spleen Wt.,[3]; [18],0.926 ± 0.060 g
same,Thymus Rel. wt.,[3]; [18],0.133 ± 0.009%
same,Thymus Wt.,[3]; [18],0.320 ± 0.030 g
same,ALT,[4]; [17],1.04 ± 0.06 mM/hr-L
same,ALT,[4]; [18],1.08 ± 0.06 mM/hr-L
same,Adrenal Glands Rel. wt.,[5]; 0.1 mkg/kg,0.019 ± 0.002%
same,Adrenal Glands Wt.,[5]; 0.1 mkg/kg,41.8 ± 5.1
same,Liver Rel. wt.,[5]; 0.1 mkg/kg,3.27 ±0.18%
same,Liver Wt.,[5]; 0.1 mkg/kg,7.062 ± 0.411 g
same,Spleen Rel. wt.,[5]; 0.1 mkg/kg,0.48 ± 0.03%
same,Spleen Wt.,[5]; 0.1 mkg/kg,1.061 ± 0.085 g
same,Thymus Rel. wt.,[5]; 0.1 mkg/kg,0.081 ± 0.007%
same,Thymus Wt.,[5]; 0.1 mkg/kg,0.173 ± 0.018 g
same,Adrenal Glands Rel. wt.,[5]; 10.0 mkg/kg,0.022 ± 0.002%
same,Adrenal Glands Wt.,[5]; 10.0 mkg/kg,48.3 ± 2.2
same,Liver Rel. wt.,[5]; 10.0 mkg/kg,3.76 ± 0.020 %
same,Liver Wt.,[5]; 10.0 mkg/kg,8.310 ± 0.426 g
same,Spleen Rel. wt.,[5]; 10.0 mkg/kg,0.56 ± 0.05%
same,Spleen Wt.,[5]; 10.0 mkg/kg,1.233 ± 0.104 g
same,Thymus Rel. wt.,[5]; 10.0 mkg/kg,0.078 ± 0.008%
same,Thymus Wt.,[5]; 10.0 mkg/kg,0.179 ± 0.032 g
same,AP,[6]; 0.1 mkg/kg + stress,1100 ± 54 nM/s-L
same,AP,[6]; 10.0 mkg/kg + stress,1123 ± 55 nM/s-L
same,AP,[7]; 0.1 mkg/kg,1357 ± 58 nM/c*L
same,AP,[7]; 10.0 mkg/kg,1368 ± 148 nM/c*L
same,SODM,[8]; 0.1 mkg/kg,3.1 ± 0.11 conv. units/ml
same,SODM,[8]; 10.0 mkg/kg,3.06 ± 0.16 conv. units/ml
same,SODM,[9]; [19],2.50 ± 0.05 con. units/ml
same,SODM,[9]; [20],2.58 ± 0.14 con. units/ml
same,increased the activity of SODM compared to control animals,[9]; [21],1.6 times
same,Adrenal Glands Rel Wt.,[10]; 0.1 mkg/kg + stress,0.017 ± 0.001 %
same,Adrenal Glands Wt.,[10]; 0.1 mkg/kg + stress,40.8 ± 1.1 mg
same,Spleen Rel Wt.,[10]; 0.1 mkg/kg + stress,0.37 ± 0.06 %
same,Spleen Wt.,[10]; 0.1 mkg/kg + stress,0.872 ± 0.066 g
same,Thymus Rel Wt.,[10]; 0.1 mkg/kg + stress,0.124 ± 0.010 %
same,Thymus Wt.,[10]; 0.1 mkg/kg + stress,0.307 ± 0.028 g
same,reducing adrenal weight compared to that of the control animals,[10]; 0.1 mkg/kg + stress,16 - 17%
same,Adrenal Glands Rel Wt.,[10]; 10.0 mkg/kg + stress,0.018 ± 0.001 %
same,Adrenal Glands Wt.,[10]; 10.0 mkg/kg + stress,45.2 ± 2.2 mg
same,Spleen Rel Wt.,[10]; 10.0 mkg/kg + stress,0.41 ± 0.03%
same,Spleen Wt.,[10]; 10.0 mkg/kg + stress,0.977 ± 0.082 g
same,Thymus Rel Wt.,[10]; 10.0 mkg/kg + stress,0.154 ± 0.008%
same,Thymus Wt.,[10]; 10.0 mkg/kg + stress,0.350 ± 0.022 g
same,lowered the relative weight of the spleen compared to that of the intact animals,[10]; small doses + stress,24%
same,MDA,"malondialdehyde (MDA) [11]; blood serum, 0.1 mkg/kg",0.169 ± 0.012 OD532
same,MDA,"malondialdehyde (MDA) [11]; blood serum, 10.0 mkg/kg",0.217 ± 0.030 OD532
same,reduced MDA content,"malondialdehyde (MDA) [11]; small dose, treatment after Indomethacin",70%
same,MDA,malondialdehyde (MDA) [12]; 0.1 mkg/kg + stress,0.130 ± 0.019 OD532
same,MDA,malondialdehyde (MDA) [12]; 10 mkg/kg + stress,0.128 ± 0.020 OD532
same,ALT,[13]; 0.1 mkg/kg,0.75 ± 0.09 mM/h*L
same,ALT,[13]; 10.0 mkg/kg,0.66 ± 0.11 mM/h*L
same,AP,[14]; [17],1108 ± 91 nM/s-L
same,AP,[14]; [18],1180 ± 91 nM/s-L
same,SODM,[15]; 0.1 mkg/kg + stress,2.20 ± 0.09 con. units/ml
same,SODM,[15]; 10 mkg/kg + stress,2.35 ± 0.11 con. units/ml
same,MDA,malondialdehyde (MDA) [16]; [19],0.124 ± 0.009 OD532
same,MDA,malondialdehyde (MDA) [16]; [20],0.158 ± 0.030 OD532
same,reduced the final LP-MDA product concentration compared to control animals,malondialdehyde (MDA) [16]; [21],14%
aluminum complex of beta-D-fructofuranosyl-alpha-D-glucopyranoside octakis (hydrosulfate) [Sucralfate],ALT,[1]; 200 mg/kg + stress,1.57 ± 0.06 mM/hr-L
same,Body weight In 5 days,[2]; 200 mg/kg,86.6 ± 2.5
same,Adrenal Glands Rel. wt.,[3]; [22],0.017 ± 0.001%
same,Liver Rel. wt.,[3]; [22],3.259± 0.049%
same,Liver Wt.,[3]; [22],7.702 ± 0.224 g
same,Spleen Rel. wt.,[3]; [22],0.490 ± 0.020%
same,Spleen Wt.,[3]; [22],1.070 ± 0.041 g
same,Thymus Rel. wt.,[3]; [22],0.130 ± 0.009%
same,Thymus Wt.,[3]; [22],0.306 ± 0.023 g
same,ALT,[4]; [22],1.05 ± 0.05 mM/hr-L
same,Adrenal Glands Rel. wt.,[5]; 200 mg/kg,0.023± 0.002%
same,Adrenal Glands Wt.,[5]; 200 mg/kg,50.1 ± 3.2
same,Liver Rel. wt.,[5]; 200 mg/kg,3.23 ± 0.13%
same,Liver Wt.,[5]; 200 mg/kg,7.158 ± 0.330 g
same,Spleen Rel. wt.,[5]; 200 mg/kg,0.57 ± 0.04%
same,Spleen Wt.,[5]; 200 mg/kg,1.260 ± 0.083 g
same,Thymus Rel. wt.,[5]; 200 mg/kg,0.070 ± 0.005 %
same,Thymus Wt.,[5]; 200 mg/kg,0.155 ± 0.011 g
same,AP,[6]; 200 mg/kg + stress,1113 ± 77 nM/s-L
same,AP,[7]; 200 mg/kg,1260 ± 104 nM/c*L
same,SODM,[8]; 200 mg/kg,2.66 ± 0.11 conv. units/ml
same,SODM,[9]; [22],2.68 ± 0.14 con. units/ml
same,Adrenal Glands Rel Wt.,[10]; 200 mg/kg + stress,0.017 ± 0.001 %
same,Adrenal Glands Wt.,[10]; 200 mg/kg + stress,41.6 ± 2.7 mg
same,Spleen Rel Wt.,[10]; 200 mg/kg + stress,0.40 ± 0.02%
same,Spleen Wt.,[10]; 200 mg/kg + stress,0.974 ± 0.057 g
same,Thymus Rel Wt.,[10]; 200 mg/kg + stress,0.140 ± 0.007%
same,Thymus Wt.,[10]; 200 mg/kg + stress,0.327 ± 0.016 g
same,MDA,malondialdehyde (MDA) [11]; 200 mg/kg,0.155 ± 0.037 OD532
same,MDA,malondialdehyde (MDA) [12]; 200 mg/kg + stress,0.147 ± 0.007 OD532
same,ALT,[13]; 200 mg/kg,0.69 ± 0.05 mM/h*L
same,AP,[14]; [22],931 ± 108 nM/s-L
same,SODM,[15]; 200 mg/kg + stress,2.32 ± 0.11 con. units/ml
same,MDA,malondialdehyde (MDA) [16]; [22],0.134 ± 0.024 OD532
